Data on one molecule can be found in paper PMC4583449, “Characterisation of (R)-2-(2-Fluorobiphenyl-4-yl)-N-(3-Methylpyridin-2-yl)Propanamide as a Dual Fatty Acid Amide Hydrolase: Cyclooxygenase Inhibitor” (PLoS ONE, 2015).

Like-named read-outs stand apart in the source and are kept apart here.

The target of assay [1] is T1, mouse brain FAAH (Mus musculus, UniProt O08914).
T1 construct: Brains from male B6CBAF1/J mice, stored at -80°C, were thawed, weighed and homogenized in cold buffer; from tissue; host or cells: brain of male B6CBAF1/J mice (washed membrane pellet homogenate)
T1 sequence (O08914 1-579): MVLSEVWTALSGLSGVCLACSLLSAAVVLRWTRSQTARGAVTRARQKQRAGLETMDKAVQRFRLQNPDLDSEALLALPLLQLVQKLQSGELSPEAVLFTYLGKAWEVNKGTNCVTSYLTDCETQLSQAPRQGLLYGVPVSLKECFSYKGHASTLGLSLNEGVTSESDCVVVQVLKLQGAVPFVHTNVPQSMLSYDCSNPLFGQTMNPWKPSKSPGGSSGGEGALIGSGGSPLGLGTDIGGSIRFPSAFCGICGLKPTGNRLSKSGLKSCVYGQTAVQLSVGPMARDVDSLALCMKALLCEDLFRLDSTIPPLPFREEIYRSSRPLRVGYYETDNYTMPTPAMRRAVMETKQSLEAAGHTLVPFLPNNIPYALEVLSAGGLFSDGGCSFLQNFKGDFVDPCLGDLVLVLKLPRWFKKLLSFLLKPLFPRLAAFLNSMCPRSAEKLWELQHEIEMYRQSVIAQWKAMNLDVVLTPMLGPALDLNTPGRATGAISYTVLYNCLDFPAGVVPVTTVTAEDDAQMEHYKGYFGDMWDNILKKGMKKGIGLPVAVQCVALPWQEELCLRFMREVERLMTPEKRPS
As to the kind of experiment: FAAH assay, [3H]AEA hydrolysis in mouse brain homogenates. The assay is classed as biochemical. Here is the method: Brains from male B6CBAF1/J mice, stored at -80°C, were thawed, weighed and homogenized in cold buffer (20 mM HEPES, 1 mM MgCl2 pH 7.0). Homogenates were centrifuged (35,000 g at 4°C for 20 min) before the pellet was resuspended in cold homogenization buffer. Centrifugation and resuspension was repeated twice. The suspension was incubated at 37°C for 15 min to degrade any endogenous substrate able to interfere with the FAAH assay. After centrifugation (35,000 g at 4°C for 20 min), the pellet was resuspended in cold buffer (50 mM Tris-HCl, 1mM EDTA, 3 mM MgCl2, pH 7.4). The protein concentration was determined according to the Bradford assay after which the samples were frozen in aliquots at -80°C. Ethical permission for the animal experiments was obtained from the local animal research ethical committee (Umeå Ethical Committee for Animal Research, Umeå, Sweden). FAAH was assayed using the method of Boldrup et al., whereby homogenates (0.3 μg protein / assay) in assay buffer (10 mM Tris-HCl, 1mM EDTA, pH 7.4), test compounds and substrate ([^3H]AEA in 10 mM Tris-HCl, 1mM EDTA, pH 7.4 containing 10 mg/ml fatty acid-free bovine serum, assay concentration 0.5 μM unless otherwise stated) were incubated for 10 min at 37°C. Thereafter, 400 μL activated charcoal (80 μL activated charcoal + 320 μL 0.5 M HCl) was added and the samples were placed on ice and centrifuged at 2500 rpm for 10 min. Aliquots (200 μL) of the supernatant was analyzed for tritium content by liquid scintillation spectroscopy with quench correction.

Assay [2] deals with RAW 264.7 cells. As to the kind of experiment: [3H]AEA hydrolysis by intact RAW 264.7 cells. In kind it is cell-based, mouse. The following applies: LPS + INF-γ-treated cells; 100 nM [3H]AEA, 60 min; URB597 1 μM, flurbiprofen and (R)-Flu-AM1 10 μM.

For `Cc1cccnc1NC(=O)[C@H](C)c1ccc(-c2ccccc2)c(F)c1` [(R)-Flu-AM1, (R)-2-(2-Fluorobiphenyl-4-yl)-N-(3-Methylpyridin-2-yl)Propanamide], in assay [1] (0.5 μM [3H]AEA, read-out: IC50 inhibition of [3H]AEA hydrolysis in mouse brain homogenates), the IC50 was determined as 8.8 µM. In addition, the Ki in assay [1] (Dixon replot of mean kinetic data, 1–8 μM [3H]AEA, read-out: Ki FAAH (Dixon plot)) was determined as 19 µM; in assay [1] (kinetic experiments, 1–8 μM [3H]AEA, read-out: Ki FAAH (competitive model fit)), 20 ± 8 µM. In assay [1] (kinetic experiments, 1–8 μM [3H]AEA), the “Mode of FAAH inhibition” value is “competitive inhibitor”. Moreover, in assay [2], the “Effect on hydrolysis of exogenous [3H]AEA by intact cells” value is “would not be expected, and this was found to be the case”.

By IC50 is commonly meant the midpoint of a concentration-inhibition curve. As usually defined, the Ki is the dissociation constant of the complex between target and ligand, obtained from inhibition or displacement.
